From US7825279B2, “Fused ring dicationic anti-protozoan agents and their prodrugs” (The University of North Carolina at Chapel Hill, priority 2003, dated 2010)
pIC50: −log10 of the molar value. Like-named read-outs stand apart in the source and are kept apart here.

Tests used:
[1] = tested on: poly dA-dT; test: DNA ΔTm poly dA-dT; type: binding; set-up: unit not given here
[2] = tested on: virulent STIP90° strain of T.b.r.; test: in vivo T.b.r. mouse model; conditions: for In vivo T.b.r. Cures: cures/animals
[3] = tested on: Plasmodium falciparum; test: in vitro IC50 versus Plasmodium falciparum (P.f.); type: cell-based
[4] = tested on: Trypanosoma brucei rhodesiense; test: in vitro IC50 versus Trypanosoma brucei rhodesiense (T.b.r.); type: cell-based
[5] = Plasmodium falciparum, in vitro, read-out: P.f. IC50
[6] = Trypanosoma brucei, RHODESIENSE

Row | Structure (SMILES) | DNA ΔTm poly dA-dT [1] | In vivo T.b.r. survival days [2] [days] | In vivo T.b.r. Cures [2] | pIC50 ([3]; Plasmodium falciparum, in vitro, read-out: IC-50 versus Plasmodium falciparum (p.f.)) | pIC50 [3, 5] | pIC50 [4, 6] | pIC50 ([4]; Dihydrochloride) | pIC50 ([3]; in vitro, read-out: P.f. IC50) | pIC50 [4] | pIC50 ([3]; Plasmodium falciparum, read-out: P.f. IC50)
1 | Cl.Cl.N=C(N)Nc1ccc2c(c1)Cc1cc(NC(=N)N)ccc1-2 [Compound 5a, 2,7-Bis-guanidino-9H-fluorene Dihydrochloride] | 13.6 | 6 | 0/4 | ≥ 8.00 | 8.64 | 7.62 | – | – | – | –
2 | Cl.Cl.N=C(N)Nc1ccc2c(c1)C(=O)c1cc(NC(=N)N)ccc1-2 [Compound 5b, 2,7-Bis-guanidinofluoren-9-one Dihydrochloride] | 6.1 | 50.75 | 2/4 | – | 6.57 | ≥ 7.89 | 8.14 | – | – | –
3 | Cl.Cl.N=C(N)Nc1ccc2c(c1)C(=O)c1cc(NC(=N)N)ccc1C2=O [Compound 5c, 2,7-Bis-guanidinoanthraquinone Dihydrochloride] | 7.2 | 27 | 0/4 | – | 7.63 | 6.89 | – | – | – | –
4 | Cl.Cl.Cl.N=C(N)Nc1ccc2cc3ccc(NC(=N)N)cc3nc2c1 [Compound 5d, 3,6-bis-guanidinoacridine Trihydrochloride] | 7.7 | 16.25 | 0/4 | – | 6.64 | 7.17 | – | – | – | –
5 | CCOC(=O)NC(=N)Nc1ccc2c(c1)Cc1cc(NC(=N)NC(=O)OCC)ccc1-2 [Compound 7a, 2,7-Bis(N″-ethoxycarbonyl)guanidino-9H-fluorene] | 0.3 | 18.75 | 0/4 | – | – | – | – | 5.68 | 5.85 | –
6 | CCOC(=O)NC(=N)Nc1ccc2c(c1)C(=O)c1cc(NC(=N)NC(=O)OCC)ccc1-2 [Compound 7b, 2,7-Bis(N″-ethoxycarbonyl)guanidinofluoren-9-one] | −0.3 | 6 | 0/4 | – | – | – | – | 5.49 | 5.92 | –
7 | CCOC(=O)NC(=NC)Nc1ccc2c(c1)Cc1cc(NC(=NC)NC(=O)OCC)ccc1-2 [Compound 7c, 2,7-Bis(N″-ethoxycarbonyl-N′-methyl)guanidino-9H-fluorene] | – | – | – | – | – | – | – | 6.00 | 5.54 | –
8 | CCOC(=O)NC(=NC(C)C)Nc1ccc2c(c1)Cc1cc(NC(=NC(C)C)NC(=O)OCC)ccc1-2 [Compound 7d, 2,7-Bis(N″-ethoxycarbonyl-N′-iso-propyl)guanidino-9H-fluorene] | −0.5 | 17.75 | 0/4 | – | – | – | – | 5.20 | 5.60 | –
9 | CNC(=N)Nc1ccc2c(c1)Cc1cc(NC(=N)NC)ccc1-2 [Compound 8a, 2,7-Bis(N′-methyl)guanidino-9H-fluorene] | 10.1 | 52 | 3/4 | – | – | – | – | 8.00 | 7.89 | –
10 | CC(C)NC(=N)Nc1ccc2c(c1)Cc1cc(NC(=N)NC(C)C)ccc1-2 [Compound 8b, 2,7-Bis(N-iso-propyl)guanidino-9H-fluorene] | 9.3 | 60 | 4/4 | – | – | – | – | 7.45 | 7.39 | –
11 | c1ccc(N=Nc2ccc3c(c2)Cc2cc(N=Nc4ccccc4)ccc2-3)cc1 [Compound 9a, 2,7-Bis[(phenylimino)amino]-9H-fluorene] | 22 | 7 | 0/4 | – | – | 6.53 | – | – | – | 6.32
12 | c1ccc(N=Nc2ccc3c(c2)Cc2cc(N=Nc4ccccn4)ccc2-3)nc1 [Compound 9b, 2,7-Bis[(2-pyridylimino)amino]-9H-fluorene] | 15.2 | – | – | – | 5.92 | 6.05 | – | – | – | –
